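Five concentrations, 48 hours, 96-well plates. Here, GI50 denotes the concentration required for 50% inhibition of growth.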 Active and inactive are the calls of the source. Rule as the data show it: active = GI50 up to about 1.1 µM and inactive = higher.
Legend:
Assay in all cases: DTP human tumour cell line panel, 48 h
HL-60 = system: HL-60
HCT-15 = system: HCT-15
LOX IMVI = system: LOX IMVI
SK-OV-3 = system: SK-OV-3
COLO 205 = system: COLO 205
M14 = system: M14
OVCAR-8 = system: OVCAR-8
HT-29 = system: HT-29
SK-MEL-5 = system: SK-MEL-5
OVCAR-4 = system: OVCAR-4
EKVX = system: EKVX
Malme-3M = system: Malme-3M
SNB-75 = system: SNB-75
NCI-H460 = system: NCI-H460
SK-MEL-2 = system: SK-MEL-2
ACHN = system: ACHN
T47D = system: T47D
SNB-19 = system: SNB-19
HCC 2998 = system: HCC 2998
UO-31 = system: UO-31

| Structure (SMILES) | GI50 (HL-60) | GI50 (HCT-15) [µM] | GI50 (LOX IMVI) | GI50 (SK-OV-3) | GI50 (COLO 205) | GI50 (M14) | GI50 (OVCAR-8) | GI50 (HT-29) | GI50 (SK-MEL-5) | GI50 (OVCAR-4) | GI50 (EKVX) | GI50 (Malme-3M) | GI50 (SNB-75) | GI50 (NCI-H460) | GI50 (SK-MEL-2) | GI50 (ACHN) | GI50 (T47D) | GI50 (SNB-19) | GI50 (HCC 2998) | GI50 (UO-31) |
| --- | --- | --- | --- | --- | --- | --- | --- | --- | --- | --- | --- | --- | --- | --- | --- | --- | --- | --- | --- | --- |
| NCc1nnn(Cc2ccccc2)c1N | > 100 µM (inactive) | > 100 | > 100 µM (inactive) | > 100 µM (inactive) | > 100 µM (inactive) | > 100 µM (inactive) | > 100 µM (inactive) | > 100 µM (inactive) | > 100 µM (inactive) | > 100 µM (inactive) | > 100 µM (inactive) | > 100 µM (inactive) | > 100 µM (inactive) | > 100 µM (inactive) | > 100 µM (inactive) | > 100 µM (inactive) | > 100 µM (inactive) | > 100 µM (inactive) | – | – |
| COc1cccc(-c2nc(O)c3ccccc3n2)c1 | > 100 µM (inactive) | 18 | 52.6 µM (inactive) | 19.7 µM (inactive) | 37.8 µM (inactive) | 50.2 µM (inactive) | 28.4 µM (inactive) | 21.2 µM (inactive) | 24.3 µM (inactive) | – | 26.8 µM (inactive) | 21.6 µM (inactive) | – | 23.2 µM (inactive) | 39.5 µM (inactive) | 20.8 µM (inactive) | 21.8 µM (inactive) | 19.8 µM (inactive) | 22.3 µM (inactive) | 22.4 µM (inactive) |
| CCN1C/C(=C\c2ccc(Cl)cc2)c2[nH]c(=O)c(C#N)c(-c3ccc(Cl)cc3)c2C1 | > 100 µM (inactive) | > 100 | > 100 µM (inactive) | > 100 µM (inactive) | > 100 µM (inactive) | > 100 µM (inactive) | – | > 100 µM (inactive) | > 100 µM (inactive) | > 100 µM (inactive) | > 100 µM (inactive) | > 100 µM (inactive) | – | > 100 µM (inactive) | > 100 µM (inactive) | > 100 µM (inactive) | > 100 µM (inactive) | > 100 µM (inactive) | > 100 µM (inactive) | – |
| CC1(C)[C@@H]2CC[C@@]1(C)[C@H](O)[C@@H]2SCc1ccccc1 | 25.5 µM (inactive) | 14.8 | 18.5 µM (inactive) | 20.5 µM (inactive) | 17.8 µM (inactive) | 15 µM (inactive) | 19.1 µM (inactive) | 14.7 µM (inactive) | 15.4 µM (inactive) | 12.9 µM (inactive) | 15.3 µM (inactive) | – | 27.4 µM (inactive) | 19.2 µM (inactive) | 18.1 µM (inactive) | 11.7 µM (inactive) | 24 µM (inactive) | 16.8 µM (inactive) | 19.5 µM (inactive) | 21 µM (inactive) |
| NC(=S)N/N=C1\NC(=O)/C(=C/c2ccc3c(c2)OCO3)S1 | 20.6 µM (inactive) | 26.7 | 28.3 µM (inactive) | 30 µM (inactive) | 26.3 µM (inactive) | 24.5 µM (inactive) | 24.8 µM (inactive) | 28.6 µM (inactive) | 16.3 µM (inactive) | 24.3 µM (inactive) | 21.6 µM (inactive) | – | 14.3 µM (inactive) | 30.8 µM (inactive) | 27.2 µM (inactive) | 32.1 µM (inactive) | 19.3 µM (inactive) | 18 µM (inactive) | 33.7 µM (inactive) | 30.1 µM (inactive) |
| O=C1OC(c2ccccc2)=N/C1=C\c1ccc(F)cc1 | > 100 µM (inactive) | > 100 | 38.9 µM (inactive) | > 100 µM (inactive) | > 100 µM (inactive) | > 100 µM (inactive) | 47 µM (inactive) | > 100 µM (inactive) | 80.5 µM (inactive) | 97.3 µM (inactive) | > 100 µM (inactive) | – | > 100 µM (inactive) | > 100 µM (inactive) | > 100 µM (inactive) | > 100 µM (inactive) | > 100 µM (inactive) | > 100 µM (inactive) | > 100 µM (inactive) | > 100 µM (inactive) |
| O=[N+]([O-])/C=C1\COCc2cc3c(cc21)OCO3 | 25.2 µM (inactive) | 19.1 | 27.2 µM (inactive) | 42.7 µM (inactive) | 23.1 µM (inactive) | 13.4 µM (inactive) | 27.8 µM (inactive) | 25.1 µM (inactive) | 19.6 µM (inactive) | – | 28.1 µM (inactive) | – | 16.5 µM (inactive) | 30.9 µM (inactive) | – | 20.8 µM (inactive) | 15.9 µM (inactive) | – | 18 µM (inactive) | 18.9 µM (inactive) |
| N#CI1OC(C(F)(F)F)(C(F)(F)F)c2ccccc21 | 5.77 µM (inactive) | 15.1 | 18.8 µM (inactive) | > 100 µM (inactive) | 12.9 µM (inactive) | 19 µM (inactive) | 16.3 µM (inactive) | 16.4 µM (inactive) | 17.5 µM (inactive) | 15.1 µM (inactive) | 14.6 µM (inactive) | – | 13.9 µM (inactive) | 24.8 µM (inactive) | 16.1 µM (inactive) | 18.2 µM (inactive) | 18.1 µM (inactive) | – | 20 µM (inactive) | 14.6 µM (inactive) |
| Nc1nc(N)c2c(n1)NC(c1ccccc1)CC(/C=C/c1ccc(Cl)cc1)=N2 (stereo unspecified) | 10.2 µM (inactive) | 5.97 | 3.49 µM (inactive) | 15.7 µM (inactive) | 2.7 µM (inactive) | 11.6 µM (inactive) | 5.28 µM (inactive) | 3.95 µM (inactive) | 9.4 µM (inactive) | 6.41 µM (inactive) | 4.32 µM (inactive) | 13.5 µM (inactive) | 18.5 µM (inactive) | 4.41 µM (inactive) | 14.6 µM (inactive) | 10.8 µM (inactive) | 5.83 µM (inactive) | 12.8 µM (inactive) | – | 9.12 µM (inactive) |
| CN1CCc2c(sc3nc(Nc4ccccc4)n(N)c(=O)c23)C1 | 19.8 µM (inactive) | > 100 | – | – | 42.8 µM (inactive) | 24.1 µM (inactive) | > 100 µM (inactive) | 43.8 µM (inactive) | 77.3 µM (inactive) | – | > 100 µM (inactive) | – | – | > 100 µM (inactive) | > 100 µM (inactive) | > 100 µM (inactive) | > 100 µM (inactive) | > 100 µM (inactive) | – | > 100 µM (inactive) |
| O=S1(=O)N2CN3CN(C2)CN1C3 | 23.1 µM (inactive) | 23.2 | 36.8 µM (inactive) | 230 µM (inactive) | 25.4 µM (inactive) | 36.2 µM (inactive) | > 86.5 µM (inactive) | 26 µM (inactive) | 32.4 µM (inactive) | 28.7 µM (inactive) | 370 µM (inactive) | 129 µM (inactive) | 28.8 µM (inactive) | 51.5 µM (inactive) | 141 µM (inactive) | 108 µM (inactive) | – | 238 µM (inactive) | 255 µM (inactive) | 182 µM (inactive) |
| COc1c(O)cc2ccnc3c2c1N(C)C=C3 | – | > 100 | > 100 µM (inactive) | > 100 µM (inactive) | 94.6 µM (inactive) | > 100 µM (inactive) | 95.1 µM (inactive) | – | – | > 100 µM (inactive) | > 100 µM (inactive) | – | > 100 µM (inactive) | 64.6 µM (inactive) | > 100 µM (inactive) | 56.1 µM (inactive) | > 100 µM (inactive) | > 100 µM (inactive) | > 100 µM (inactive) | 39.4 µM (inactive) |
| CC(CO)CCNc1ncnc2c1ncn2CCC(=O)O (stereo unspecified) | > 100 µM (inactive) | – | > 100 µM (inactive) | > 100 µM (inactive) | > 100 µM (inactive) | > 100 µM (inactive) | > 100 µM (inactive) | > 100 µM (inactive) | > 100 µM (inactive) | > 100 µM (inactive) | > 100 µM (inactive) | > 100 µM (inactive) | > 100 µM (inactive) | > 100 µM (inactive) | – | > 100 µM (inactive) | > 100 µM (inactive) | > 100 µM (inactive) | – | > 100 µM (inactive) |
| O=C1CSC(c2c[nH]c3ccccc23)N1c1ccccc1[N+](=O)[O-] (stereo unspecified) | > 100 µM (inactive) | > 100 | > 100 µM (inactive) | > 100 µM (inactive) | > 100 µM (inactive) | > 100 µM (inactive) | > 100 µM (inactive) | > 100 µM (inactive) | > 100 µM (inactive) | > 100 µM (inactive) | > 100 µM (inactive) | – | – | > 100 µM (inactive) | – | – | > 100 µM (inactive) | > 100 µM (inactive) | > 100 µM (inactive) | > 100 µM (inactive) |
| COc1cc2c[n+](C)c3c(c2cc1OC)Cc1cc2c(cc1-3)OCO2 | > 100 µM (inactive) | > 100 | > 100 µM (inactive) | > 100 µM (inactive) | > 100 µM (inactive) | > 100 µM (inactive) | > 100 µM (inactive) | > 100 µM (inactive) | > 100 µM (inactive) | 87.3 µM (inactive) | > 100 µM (inactive) | > 100 µM (inactive) | > 100 µM (inactive) | – | > 100 µM (inactive) | – | > 100 µM (inactive) | > 100 µM (inactive) | – | > 100 µM (inactive) |
| COC1=CC(=O)c2c(c(-c3nc(C)cs3)cn2C)C1=O | 1.46 µM (inactive) | 1.28 | 0.804 µM (active) | 41.2 µM (inactive) | 12.4 µM (inactive) | 2.13 µM (inactive) | 4.56 µM (inactive) | 4.98 µM (inactive) | 1.2 µM (inactive) | 18.5 µM (inactive) | 8.65 µM (inactive) | – | 1.75 µM (inactive) | 1.25 µM (inactive) | 3.03 µM (inactive) | 4.73 µM (inactive) | 20.1 µM (inactive) | 4.23 µM (inactive) | 4.28 µM (inactive) | 4.53 µM (inactive) |
